Source: PMC3340383, “Synthesis and Evaluation of a Series of 2-Substituted-5-Thiopropylpiperazine (Piperidine)-1,3,4-Oxadiazoles Derivatives as Atypical Antipsychotics” (PLoS ONE, 2012)

Assays:
dopamine D2 receptor = target: T1, dopamine D2 receptor (Rattus norvegicus, UniProt P61169); test: D2 dopaminergic binding assay ([3H]spiperone, rat striatum); conditions: [3H]spiperone, rat striatum; mean of three experiments; >10000 marked b: Ki not calculated, inhibition at 10 µM too low; read-out: Ki±SEM, D2
T1 construct: Rat striatum was homogenized in 20 volumes of ice-cold 50 mM Tris-HCl buffer; from tissue; host or cells: rat striatum
Method: (§1) All the new compounds were dissolved in 5% DMSO. The following specific radioligands and tissue sources were used: (a) serotonin 5-HT1A receptor, [^3H]8-OH-DPAT, rat brain cortex; (b) serotonin 5-HT2A receptor, [^3H]ketanserin, rat brain cortex; (c) serotonin 5-HT2C receptor, [^3H]mesulergine, rat brain cortex; (d) dopamine D2 receptor, [^3H]spiperone, rat striatum; (e) dopamine D3 receptor, [^3H]spiperone, rat olfactory tubercle (f) histamine H1 receptor, [^3H] pyrilamine, guinea pig cerebellum.
(§2) Total binding was determined in the absence of no-specific binding and compounds. Specific binding was determined in the presence of compounds. Non-specific binding was determined as the difference between total and specific binding.
(§3) Percentage of inhibition (%) = (total binding − specific binding)×100%/(total binding − nonspecific binding).
(§4) Ki values were calculated based on the Cheng and Prussoff equation: Ki = IC50/(1+C/Kd) where C represents the concentration of the hot ligand used and Kd its receptor dissociation constant were calculated for each labeled ligand. Mean Ki values and SEM were reported for at least three independent experiments.
Rat striatum was homogenized in 20 volumes of ice-cold 50 mM Tris-HCl buffer (pH 7.7) using an ULTRA TURAX homogeniser, and centrifuged twice for 10 min at 48,000 g with resuspension of the pellet in fresh buffer. The final pellet was resuspended in 50 mM ice-cold Tris-HCl containing 120 mM NaCl, 5 mM KCl, 2 mM CaCl2, 1 mM MgCl2, 0.1% ascorbic acid and 5 µM pargyline.
Total binding each assay tube was added 900 µL of the tissue suspension, 50 µL of 0.5 nM [^3H]spiperone (16.2 Ci/mmol; Perkin Elmer Life Sciences, Boston, MA, USA), 50 µL Tris-HCl buffer containing 120 mM NaCl, 5 mM KCl, 2 mM CaCl2, 1 mM MgCl2, 0.1% ascorbic acid and 5 µM pargyline.
Non-specific binding each assay tube was added 900 µL of the tissue suspension, 50 µL of 0.5 nM [^3H]spiperone, 50 µL of 10 µM (+)-butaclamol.
Specific binding each assay tube was added 900 µL of the tissue suspension, 50 µL of 0.5 nM [^3H]spiperone, 50 µL of new compounds or reference drug.
(§5) The incubation was followed by a rapid vacuum filtration through Whatman GF/B glass filters, and the filtrates were washed twice with 5 mL cold buffer and transferred to scintillation vials. Scintillation fluid (3.0 mL) was added and the radioactivity bound was measured using a Beckman LS 6500 liquid scintillation counter.

[1] = target: T2, serotonin 5-HT1A receptor (Rattus norvegicus, UniProt P19327); test: 5-HT1A binding assay ([3H]8-OH-DPAT, rat brain cortex); conditions: [3H]8-OH-DPAT, rat brain cortex; mean of three experiments; >10000 marked b: Ki not calculated, inhibition at 10 µM too low; read-out: Ki±SEM, 5HT1A
T2 construct: Rat cerebral cortex was homogenized in 20 volumes of ice-cold Tris-HCl buffer; from tissue; host or cells: rat brain (cerebral) cortex
T2 sequence (P19327 1-422): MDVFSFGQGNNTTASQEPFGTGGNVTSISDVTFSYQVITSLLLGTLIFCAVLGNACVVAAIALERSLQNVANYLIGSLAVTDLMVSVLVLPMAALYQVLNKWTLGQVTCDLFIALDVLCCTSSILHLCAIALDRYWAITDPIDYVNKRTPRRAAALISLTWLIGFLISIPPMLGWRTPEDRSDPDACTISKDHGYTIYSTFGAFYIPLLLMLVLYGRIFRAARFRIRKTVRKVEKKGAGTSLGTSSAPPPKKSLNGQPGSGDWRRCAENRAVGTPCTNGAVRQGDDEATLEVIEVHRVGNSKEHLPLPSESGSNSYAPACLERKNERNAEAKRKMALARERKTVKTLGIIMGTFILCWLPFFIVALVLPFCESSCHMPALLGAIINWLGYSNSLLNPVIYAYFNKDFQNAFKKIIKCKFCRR
Method: as §1, §2, §3, §4
Rat cerebral cortex was homogenized in 20 volumes of ice-cold Tris-HCl buffer (50 mM, pH 7.7) using an ULTRA TURAX homogeniser, and was then centrifuged at 32000 g for 10 min. […] The final pellet was resuspended in Tris-HCl buffer containing 10 µM Pargyline, 4 mM CaCl2 and 0.1% ascorbic acid.
Total binding each assay tube was added 900 µL of the tissue suspension, 50 µL of 0.5 nM [^3H]8-OH-DPAT (187.4 Ci/mmol, Perkin Elmer Life Sciences, Boston, MA, USA), 50 µL Tris-HCl buffer containing 10 µM Pargyline, 4 mM CaCl2 and 0.1% ascorbic acid.
Non-specific binding each assay tube was added 900 µL of the tissue suspension, 50 µL of 0.5 nM [^3H]8-OH-DPAT, 50 µL of 10 µM serotonin.
Specific binding each assay tube was added 900 µL of the tissue suspension, 50 µL of 0.5 nM [^3H]8-OH-DPAT, 50 µL of new compounds or reference drug.
as §5, with “5mL” for “5 mL”

[2] = target: T3, serotonin 5-HT2A receptor (Rattus norvegicus, UniProt P14842); test: 5-HT2A binding assay ([3H]ketanserin, rat brain cortex); conditions: [3H]ketanserin, rat brain cortex; mean of three experiments; >10000 marked b: Ki not calculated, inhibition at 10 µM too low; read-out: Ki±SEM, 5HT2A
T3 construct: Rat cerebral cortex was homogenized in 20 volumes of ice-cold Tris-HCl buffer; from tissue; host or cells: rat brain (cerebral) cortex
Method: as §1, §2, §3, §4
Rat cerebral cortex was homogenized in 20 volumes of ice-cold Tris-HCl buffer (50 mM, pH 7.7) using an ULTRA TURAX homogeniser, and centrifuged at 32000 g for 20 min. The resulting pellet was resuspended in the same quantity of the buffer centrifuged for 20 min. The final pellet was resuspended in 50 volumes of the Tris-HCl buffer.
Total binding each assay tube was added 900 µL of the tissue suspension, 50 µL of 0.6 nM [^3H]ketanserin (60.0 Ci/mmol, Perkin Elmer Life Sciences, Boston, MA, USA), 50 µL Tris-HCl buffer.
Non-specific binding each assay tube was added 900 µL of the tissue suspension, 50 µL of 0.6 nM [^3H]ketanserin, 50 µL of 10 µM methisergide.
Specific binding each assay tube was added 900 µL of the tissue suspension, 50 µL of 0.6 nM [^3H]ketanserin, […] of new compounds or reference drug.
as §5

dopamine D3 receptor = target: T4, dopamine D3 receptor (Rattus norvegicus, UniProt P19020); test: D3 dopaminergic binding assay ([3H]spiperone, rat olfactory tubercle); conditions: mean of three experiments, read-out: Ki±SEM, D3
T4 construct: Rat olfactory tubercle was homogenized in 20 volumes of ice-cold 50 mM Hepes Na; from tissue; host or cells: rat olfactory tubercle
Method: as §1, §2, §3, §4, §5

catalepsy in mice = test: Catalepsy test (horizontal bar); conditions: po

T4 sequence (P19020 whole entry): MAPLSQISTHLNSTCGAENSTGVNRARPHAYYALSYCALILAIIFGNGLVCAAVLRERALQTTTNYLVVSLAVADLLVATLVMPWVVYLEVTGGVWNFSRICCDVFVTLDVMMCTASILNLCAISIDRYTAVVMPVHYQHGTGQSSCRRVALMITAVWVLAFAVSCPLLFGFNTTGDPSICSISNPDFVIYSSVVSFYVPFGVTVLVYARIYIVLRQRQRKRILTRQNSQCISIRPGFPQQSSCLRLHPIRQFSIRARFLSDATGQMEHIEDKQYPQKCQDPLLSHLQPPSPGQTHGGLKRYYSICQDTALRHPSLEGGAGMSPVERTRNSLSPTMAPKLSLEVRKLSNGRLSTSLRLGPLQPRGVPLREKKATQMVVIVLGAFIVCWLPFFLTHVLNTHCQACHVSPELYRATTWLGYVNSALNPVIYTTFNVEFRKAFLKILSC
T3 sequence (P14842 whole entry): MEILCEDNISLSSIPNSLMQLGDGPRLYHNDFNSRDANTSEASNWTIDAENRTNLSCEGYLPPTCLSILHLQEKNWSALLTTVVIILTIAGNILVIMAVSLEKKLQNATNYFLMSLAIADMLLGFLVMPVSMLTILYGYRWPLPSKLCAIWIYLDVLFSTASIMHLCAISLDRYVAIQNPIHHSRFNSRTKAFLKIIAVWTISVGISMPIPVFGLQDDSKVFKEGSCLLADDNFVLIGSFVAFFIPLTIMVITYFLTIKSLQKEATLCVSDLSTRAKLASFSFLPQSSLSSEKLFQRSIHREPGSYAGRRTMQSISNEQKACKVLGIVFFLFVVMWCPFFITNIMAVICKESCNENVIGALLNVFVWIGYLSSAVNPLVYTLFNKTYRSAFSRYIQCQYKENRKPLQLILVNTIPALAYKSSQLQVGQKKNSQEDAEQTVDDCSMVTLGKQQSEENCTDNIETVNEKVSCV
T1 sequence (P61169 whole entry): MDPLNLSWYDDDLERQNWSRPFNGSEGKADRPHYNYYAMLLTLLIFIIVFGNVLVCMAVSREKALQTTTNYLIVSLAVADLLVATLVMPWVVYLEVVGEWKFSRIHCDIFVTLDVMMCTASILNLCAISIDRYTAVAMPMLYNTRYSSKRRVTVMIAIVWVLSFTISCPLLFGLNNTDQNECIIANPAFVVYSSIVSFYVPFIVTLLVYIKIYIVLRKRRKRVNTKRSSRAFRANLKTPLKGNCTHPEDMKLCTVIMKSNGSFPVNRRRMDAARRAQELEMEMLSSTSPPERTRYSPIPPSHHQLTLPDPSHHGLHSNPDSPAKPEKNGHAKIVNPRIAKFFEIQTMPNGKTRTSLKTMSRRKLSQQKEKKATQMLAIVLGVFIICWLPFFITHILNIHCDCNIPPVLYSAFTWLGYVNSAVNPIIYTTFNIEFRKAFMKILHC

Structure (SMILES): Fc1ccc2c(C3CCN(CCCSc4nnc(-c5cccc6ccccc56)o4)CC3)noc2c1 [Compound 22, 2-(3-(4-(6-fluorobenzo[d]isoxazol-3-yl)piperidin-1-yl)propylthio)-5-(naphthalen-1-yl)-1,3,4-oxadiazole]
- Ki (dopamine D2 receptor): 23 ± 2.6 nM
- Ki [1]: 4.6 ± 0.8 nM
- Ki [2]: 1.1 ± 0.1 nM
- Ki (dopamine D3 receptor): 7.7 ± 0.6 nM
- CAT (catalepsy) ED50 (C) (catalepsy in mice): >300 mg/kg
